Active and inactive are the calls of the source. The rule behind the calls is not given here.
Tested on: rodent lifetime carcinogenesis bioassay, tumor incidence TD50
Assay: carcinogenic potency in animals, long-term in vivo studies, CPDB compilation (AID 1745844)

CCN(CC)C(=S)S[Te](SC(=S)N(CC)CC)(SC(=S)N(CC)CC)SC(=S)N(CC)CC
TD50 (mouse, strain B6AKF1, females, oral dosing, site: any site (literature study), lesion: several types, types named in the paper, dosed 76 weeks, study length 76 weeks): 26.7 mg/kg/day | TD50 (mouse, strain B6AKF1, females, oral dosing, site: lung, lesion: adenoma, dosed 76 weeks, study length 76 weeks): 28.2 mg/kg/day | TD50 (mouse, strain B6AKF1, males, oral dosing, site: any site (literature study), lesion: several types, types named in the paper, dosed 76 weeks, study length 76 weeks): 31.2 mg/kg/day | TD50 (mouse, strain B6AKF1, males, oral dosing, site: liver, lesion: hepatoma, dosed 76 weeks, study length 76 weeks): 55.5 mg/kg/day | TD50 (mouse, strain B6C3F1, females, in feed, site: any site (literature study), lesion: several types, types named in the paper, dosed 106 weeks, study length 106 weeks): 1030 mg/kg/day (inactive) | TD50 (mouse, strain B6C3F1, females, in feed, site: liver, lesion: hepatocellular adenoma + hepatocellular carcinoma + neoplastic nodule, dosed 106 weeks, study length 106 weeks): 2270 mg/kg/day | TD50 (mouse, strain B6C3F1, females, in feed, site: lung, lesion: alveolar/bronchiolar adenoma + alveolar/bronchiolar carcinoma, dosed 106 weeks, study length 106 weeks): 3400 mg/kg/day | TD50 (mouse, strain B6C3F1, females, oral dosing, site: any site (literature study), lesion: several types, types named in the paper, dosed 76 weeks, study length 76 weeks): 63.5 mg/kg/day | TD50 (mouse, strain B6C3F1, females, oral dosing, site: lung, lesion: adenoma, dosed 76 weeks, study length 76 weeks): 131 mg/kg/day | TD50 (mouse, strain B6C3F1, males, in feed, site: any site (literature study), lesion: several types, types named in the paper, dosed 106 weeks, study length 106 weeks): 902 mg/kg/day | TD50 (mouse, strain B6C3F1, males, in feed, site: eye, lesion: adenoma, NOS, dosed 106 weeks, study length 106 weeks): 201 mg/kg/day | TD50 (mouse, strain B6C3F1, males, in feed, site: lung, lesion: alveolar/bronchiolar adenoma + alveolar/bronchiolar carcinoma, dosed 106 weeks, study length 106 weeks): 228 mg/kg/day | TD50 (mouse, strain B6C3F1, males, in feed, site: lung, lesion: alveolar/bronchiolar carcinoma, dosed 106 weeks, study length 106 weeks): 260 mg/kg/day | TD50 (mouse, strain B6C3F1, males, oral dosing, site: any site (literature study), lesion: several types, types named in the paper, dosed 76 weeks, study length 76 weeks): 8.41 mg/kg/day | TD50 (mouse, strain B6C3F1, males, oral dosing, site: liver, lesion: hepatoma, dosed 76 weeks, study length 76 weeks): 24.2 mg/kg/day | TD50 (mouse, strain B6C3F1, males, oral dosing, site: lung, lesion: adenoma, dosed 76 weeks, study length 76 weeks): 108 mg/kg/day | TD50 (mouse, strain B6C3F1, males, oral dosing, site: lung, lesion: carcinoma, dosed 76 weeks, study length 76 weeks): 108 mg/kg/day | TD50 (mouse, strain B6C3F1, males, oral dosing, site: lung, lesion: several types, types named in the paper, dosed 76 weeks, study length 76 weeks): 52.1 mg/kg/day | TD50 (rat, strain Fischer 344, females, in feed, site: liver, lesion: hepatocellular adenoma + hepatocellular carcinoma + neoplastic nodule, dosed 105 weeks, study length 105 weeks): 650 mg/kg/day | TD50 (rat, strain Fischer 344, females, in feed, site: pituitary gland, lesion: adenoma, NOS, dosed 105 weeks, study length 105 weeks): 12.3 mg/kg/day (inactive) | TD50 (rat, strain Fischer 344, males, in feed, site: all sites, lesion: mesothelioma, NOS, dosed 105 weeks, study length 105 weeks): 77.6 mg/kg/day | TD50 (rat, strain Fischer 344, males, in feed, site: body cavities, lesion: mesothelioma, NOS, dosed 105 weeks, study length 105 weeks): 181 mg/kg/day
